The results in this text go back to patent US5019647A, “Gastrin releasing peptide antagonist” (Merck & Co., Inc., priority 1988, dated 1991).

Each structure is given as a SMILES string. Residues, ends and D or L forms follow the SMILES beside them. *: point of attachment. X1 = CCOC[C@H](CC(C)C)N*

For one experiment, the system named is Swiss 3T3 cells. The experiment can be described thus: Procedure C: Mitogenesis Inhibition (GRP-stimulated 3H-thymidine incorporation). It counts as cell-based. The note with it: 3 nM human GRP, read-out: blocks mitogenic stimulation of human GRP, IC50. As for the experimental part: (§1) The activity of the peptide derivatives of the present invention as GRP antagonists was determined in competitive binding assays with a radio-active GRP derivative. Swiss 3T3 fibroblasts were used in these tests as the source of GRP receptor. Because these cells respond to GRP binding with a rapid increase in DNA synthesis, compounds that bind to the GRP receptor can also be tested for their ability to stimulate DNA synthesis. New DNA synthesis is one of the early steps in cell division and is widely accepted as a measure of mitogenicity or cell growth. […] Compounds which block DNA synthesis are mitogenic antagonists.
Swiss 3T3 cells were grown in monolayer culture in 24 -well plates (Costar) in serum-free DMEM for 48 hours, at which time the GRP or a GRP homologue, the antagonist and 23 nM ^3 H-thymidine were added. After an additional 48 hours, the cell monolayer was washed twice with PBS, and the cells were then removed with 1 ml 10×trypsin containing 5 mM EDTA. The cells were harvested with a Skatron filter apparatus, and the filters counted in a scintillation counter.
A general note: Uptake of a labelled nucleoside into DNA is a usual measure of proliferation.

A further experiment deals with T1, GRP receptor on SCLC (Homo sapiens, UniProt P30550).
T1 construct: approximately 1×10^8 H345 SCLC cells; endogenous in cells; host or cells: H345 SCLC cells
T1 sequence (P30550 whole entry): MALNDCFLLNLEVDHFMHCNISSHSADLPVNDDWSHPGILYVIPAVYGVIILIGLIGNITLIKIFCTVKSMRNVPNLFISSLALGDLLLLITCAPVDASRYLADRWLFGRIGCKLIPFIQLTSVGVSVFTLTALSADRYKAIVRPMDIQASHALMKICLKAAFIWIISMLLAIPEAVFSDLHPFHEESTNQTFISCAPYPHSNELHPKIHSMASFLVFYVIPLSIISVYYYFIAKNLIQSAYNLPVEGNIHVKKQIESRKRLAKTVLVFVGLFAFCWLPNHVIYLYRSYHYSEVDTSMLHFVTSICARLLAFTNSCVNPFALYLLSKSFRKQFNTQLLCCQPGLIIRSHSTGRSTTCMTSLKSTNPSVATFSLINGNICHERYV
Description: Procedure D: Stimulation of Ca2+ Release in SCLC (Fura-2 fluorescence, GRP 14-27 challenge). The experiment is classed as cell-based. The following applies: H345 SCLC cells; 100 nM GRP14-27; read-out: blocks the Ca2+ response elicited by GRP14-27, IC50.

For a further experiment, the target named is T2, GRP receptor (Mus musculus, UniProt P21729).
T2 construct: Swiss 3T3 fibroblasts were used in these tests as the source of GRP receptor; endogenous in cells; host or cells: Swiss 3T3 cells (intact confluent monolayers), obtained from Dr. K. Brown
T2 sequence (P21729 whole entry): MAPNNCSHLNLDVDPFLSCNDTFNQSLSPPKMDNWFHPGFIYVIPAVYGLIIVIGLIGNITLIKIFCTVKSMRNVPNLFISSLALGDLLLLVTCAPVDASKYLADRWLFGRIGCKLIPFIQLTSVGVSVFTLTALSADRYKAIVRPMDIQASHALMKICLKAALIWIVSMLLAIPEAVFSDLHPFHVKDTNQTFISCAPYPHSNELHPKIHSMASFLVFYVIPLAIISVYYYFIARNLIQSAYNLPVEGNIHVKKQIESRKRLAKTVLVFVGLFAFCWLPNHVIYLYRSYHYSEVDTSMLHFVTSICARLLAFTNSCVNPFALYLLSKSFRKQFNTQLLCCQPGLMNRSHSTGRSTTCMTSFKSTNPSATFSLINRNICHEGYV
Description: Procedure A: Binding Inhibition Studies (competitive binding with [3H-Phe15] GRP15-27). The following applies: Swiss 3T3 cells; [3H-Phe15] GRP15-27 at 3 nM; 60 minutes at 15° C.; read-out: blocks binding of the radioligand, IC50. As for the experimental part: as §1
Swiss 3T3 cells, obtained from Dr. K. Brown (Institute of Animal Physiology, Cambridge, U.K.), were grown to confluency in Costar 12 well plates containing DMEM (Gibco) supplemented with 10% fetal bovine serum, 2 mM glutamine and 1% penicillin-streptomycin. The cells were washed twice with binding buffer [1:1 DMEM: Waymouths MB752/1 medium, plus 1 mg/ml BSA (Fraction V, Calbiochem)]. The antagonist was dissolved in 10 mM HCl, and diluted to the appropriate concentration in binding buffer. The antagonist was then added to the cells, followed by [3H-Phe^15 ] GRP15-27 at a final concentration of 3 nM. […]

Description for GRP receptor on SCLC: Following the procedure of Heikkila et al., J Biol. Chem. 262 16456 (1987), approximately 1×10^8 H345 SCLC cells, maintained in RPMI-1640 (Ro) medium supplemented with selenium, insulin, and transferrin, were harvested by settling and washed with Ro. They were then resuspended in 2 ml Ro, to which 1.2 nmol Fura-2/AM per 10^6 cells was added. After a 15 minute incubation at 37° C., the cells were diluted to 10 ml with Ro and incubated for 1 hour at 37° C., the cells were then centrifuged and resuspended in HEPES-saline (140 mM NaCl, 5mM KCl, 5mM glucose, 1 mM CaCl2, 1 mM MgCl2, 20 mM HEPES, pH 7.4) at a density of 2.5-5×10^6 cells/ml. The cells were kept on ice for up to 2 hours before being used. Ca^2+ measurements were performed at 37° C. in an Aminco SPF-500 fluorimeter. The excitation wavelength was 340 nm, the emission wavelength 510 nm. Two ml of cell suspension was periodically resuspended in a 3 ml plastic cuvette. They were equilibrated at 37° for at least 5 minutes data was collected. After a stable baseline was established, the compound of interest was added, and data was collected for approximately 5 minutes. […] The cells were then lysed with 4 μl 10% Triton X-100 to measure peak fluorescence. Baseline fluorescence was measured after the subsequent addition of 40 μl 2M tris (pH 9.5) and 64 μl 0.2M EGTA.

With `CCOC[C@H](CC(C)C)NC(=O)[C@H](Cc1c[nH]cn1)NC(=O)CNC(=O)[C@@H](NC(=O)[C@H](C)NC(=O)[C@H](Cc1c[nH]c2ccccc12)NC(=O)[C@H](Cc1c[nH]cn1)NC(C)=O)C(C)C` [Example 1, Ac-His-Trp-Ala-Val-Gly-His-NHCHCH2 OCH5] (Ac-HWAVGH-X1), the IC50 in the experiment with Swiss 3T3 cells was roughly 20 nM; at GRP receptor on SCLC, roughly 300 nM; at GRP receptor it was roughly 5 nM.

As a reminder, the IC50 is the concentration that gives 50% inhibition.
